We go through 1 molecule from US20260248842A1, “METHOD FOR TRANSIENT ACIDIFICATION OF WOUNDS” (SePRO Corporation, priority 2023, published 2026).

This series can be described thus: Early studies: permeation and transient acidification of pig skin. The settings on record: same amounts of ammonia equivalents and sulfuric acid in comparison solutions.

The structures appear in SMILES notation.

With `N.N.O=S(=O)(O)O` [ammonium sulfate], the “permeation of pig skin and transient acidification” value was “neither of the acidified ammonium salts solutions permeated pig skin”.
